For assay [1], the target named is T1, Glucocorticoid receptor (Homo sapiens, UniProt P04150).
T1 sequence (P04150 whole entry): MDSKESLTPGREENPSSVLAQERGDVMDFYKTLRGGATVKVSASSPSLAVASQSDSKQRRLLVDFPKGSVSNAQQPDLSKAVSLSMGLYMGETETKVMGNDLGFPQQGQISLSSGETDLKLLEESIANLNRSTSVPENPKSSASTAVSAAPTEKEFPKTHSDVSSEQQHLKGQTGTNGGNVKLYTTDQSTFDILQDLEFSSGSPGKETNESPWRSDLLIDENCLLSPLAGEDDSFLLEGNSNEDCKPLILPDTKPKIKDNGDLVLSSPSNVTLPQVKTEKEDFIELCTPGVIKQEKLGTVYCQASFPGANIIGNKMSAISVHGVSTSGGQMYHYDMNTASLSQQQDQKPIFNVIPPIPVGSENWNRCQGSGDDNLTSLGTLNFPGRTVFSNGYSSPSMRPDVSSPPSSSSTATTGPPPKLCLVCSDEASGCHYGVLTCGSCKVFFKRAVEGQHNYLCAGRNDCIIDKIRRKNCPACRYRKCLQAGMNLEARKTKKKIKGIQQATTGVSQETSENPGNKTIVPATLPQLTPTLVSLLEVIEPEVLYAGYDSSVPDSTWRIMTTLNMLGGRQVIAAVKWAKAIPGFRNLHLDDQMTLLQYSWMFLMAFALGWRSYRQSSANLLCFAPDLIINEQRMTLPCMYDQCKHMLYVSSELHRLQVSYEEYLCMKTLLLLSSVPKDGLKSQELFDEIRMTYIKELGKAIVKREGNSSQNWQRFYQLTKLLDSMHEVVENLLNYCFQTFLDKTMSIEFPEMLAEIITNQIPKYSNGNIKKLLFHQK
In words: Transrepression activity at GR in PMA-stimulated human A549 cells assessed as inhibition of AP1 response element-induced luciferase reporter gene activity. In kind it is cell-based. (A reporter such as luciferase makes a cellular process visible.)

For assay [2], the target named is T1, Glucocorticoid receptor. The assay is described as follows: Agonist activity at GR ligand binding domain expressed in human NP1 cells assessed as glucocorticoid response element transactivation by GAL4 luciferase reporter gene assay. Format: cell-based.
The target of assay [3] is T1, Glucocorticoid receptor. In words: Transrepression activity at GR in IL-1-beta-stimulated human A549 cells assessed as inhibition of NF-kappaB-dependent E-selectin transcription by luciferase reporter gene assay. Format: cell-based.
The target in assay [4] is T1, Glucocorticoid receptor. The assay is described as follows: Displacement of FITC-dexamethasone from human recombinant glucocorticoid receptor alpha by fluorescence polarization assay. (In general: In fluorescence polarisation assays a small probe gives low polarisation when free and higher when bound to something large.)
Assay [5] addresses T2, Mineralocorticoid receptor (Homo sapiens) (UniProt P08235).
T2 sequence (whole entry): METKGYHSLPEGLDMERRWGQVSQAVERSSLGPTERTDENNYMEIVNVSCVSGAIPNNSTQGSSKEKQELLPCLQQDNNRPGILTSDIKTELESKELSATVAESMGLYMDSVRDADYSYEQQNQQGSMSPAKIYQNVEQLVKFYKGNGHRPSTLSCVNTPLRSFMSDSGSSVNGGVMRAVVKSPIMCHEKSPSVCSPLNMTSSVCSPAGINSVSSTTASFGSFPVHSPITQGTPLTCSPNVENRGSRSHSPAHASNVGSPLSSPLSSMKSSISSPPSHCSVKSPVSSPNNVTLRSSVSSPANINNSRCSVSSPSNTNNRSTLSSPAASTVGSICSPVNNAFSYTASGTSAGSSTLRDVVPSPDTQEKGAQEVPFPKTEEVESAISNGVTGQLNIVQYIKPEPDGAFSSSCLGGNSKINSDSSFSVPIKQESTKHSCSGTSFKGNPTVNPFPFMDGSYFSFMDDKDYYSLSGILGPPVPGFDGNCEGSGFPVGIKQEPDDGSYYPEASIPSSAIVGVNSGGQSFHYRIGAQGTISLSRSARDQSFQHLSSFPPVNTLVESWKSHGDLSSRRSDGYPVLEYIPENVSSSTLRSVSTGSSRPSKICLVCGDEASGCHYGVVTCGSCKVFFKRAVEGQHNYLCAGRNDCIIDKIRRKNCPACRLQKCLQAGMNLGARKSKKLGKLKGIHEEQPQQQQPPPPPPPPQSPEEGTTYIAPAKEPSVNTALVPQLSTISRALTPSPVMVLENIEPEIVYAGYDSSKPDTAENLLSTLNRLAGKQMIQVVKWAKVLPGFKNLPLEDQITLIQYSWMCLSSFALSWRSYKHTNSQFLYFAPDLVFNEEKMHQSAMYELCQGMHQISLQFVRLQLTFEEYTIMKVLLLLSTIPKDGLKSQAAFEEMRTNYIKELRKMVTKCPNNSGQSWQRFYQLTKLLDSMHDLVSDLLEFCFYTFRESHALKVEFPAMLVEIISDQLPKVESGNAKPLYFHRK
The assay is described as follows: Antagonist activity at mineralocorticoid receptor in human A549 cells assessed as inhibition of 1.25 nM aldosterone-induced effect at 0.1 uM. In kind it is functional, cell-based.

Molecules are shown by their SMILES.

The EC50 is the midpoint of the concentration-response curve. On to `CC1(C(=O)Nc2nccs2)CC2c3ccccc3C1(C#N)c1ccccc12` (stereo not given), for which the 50% effective concentration (EC50) was 874 nM in assay [1], above 10000 nM in assay [2] and 678 nM in assay [3].
By Ki is commonly meant the equilibrium dissociation constant of an inhibitor or competing ligand from its target. Take `Cc1cnc(NC(=O)C2(C)CC3c4ccccc4C2c2ccccc23)s1` (stereo in doubt; 3): the EC50 in assay [1] turned out to be 610 nM. Besides, the Ki in assay [4] came out at 12.7 nM.
On to `CC12CC(C)(C(=O)Nc3nccs3)C(c3ccccc31)c1ccccc12` (single isomer, unassigned; isomer B), for which the EC50 in assay [1] was 800 nM; in assay [2] it was above 10000 nM; in assay [3], above 5000 nM. The Ki in assay [4] was determined as 67.8 nM.
As for `CC12CC(C)(C(=O)Nc3nncs3)C(c3ccccc31)c1ccccc12` (stereo in doubt; 18), the EC50 in assay [1] is 16.9 nM; in assay [2], above 10000 nM; in assay [3], 5.2 nM.
Regarding `CC1(C(=O)Nc2nncs2)CC2c3ccccc3C1c1ccccc12` (stereo not given), in assay [1], the EC50 was 295 nM. Moreover, the Ki in assay [4] is 5.4 nM.
On to `CC1(C(=O)Nc2nccs2)CC2([N+](=O)[O-])c3ccccc3C1c1ccccc12` (stereo not given), for which the half-maximal effective concentration (EC50) in assay [1] is 1070 nM; in assay [2], above 10000 nM; in assay [3], above 5000 nM.
One may read the inhibition as the relative decrease from the control value, in per cent. `CC12CC(C)(C(=O)Nc3nccs3)C(c3ccccc31)c1ccccc12` (stereo in doubt; 17a): the inhibition in assay [5] came out at 49%.
As to `CC1(C(=O)Nc2nccs2)CC2(Cl)c3ccccc3C1c1ccccc12` (stereo not given), the half-maximal effective concentration (EC50) came out at 229 nM in assay [1], 322 nM in assay [2] and 12.3 nM in assay [3].
Consider `CC12CC(C)(C(=O)Nc3nncs3)C(c3ccccc31)c1ccccc12` (single isomer, unassigned; isomer A), for which the inhibition in assay [5] came out at 53%.
Regarding `Cc1cnc(NC(=O)C2(C)CC3c4ccccc4C2c2ccccc23)s1` (single isomer, unassigned; isomer B), the EC50 in assay [1] was 972 nM. In addition, in assay [4], the Ki was 187 nM.
Turning to `C[C@]1(C(=O)Nc2nccs2)CC2c3ccccc3C1c1ccccc12`, the half-maximal effective concentration (EC50) in assay [1] is 544 nM. For the same compound, the Ki in assay [4] turned out to be 26.2 nM.
Regarding `CC1(C(=O)Nc2nccs2)CC2(C#N)c3ccccc3C1c1ccccc12` (stereo not given), the EC50 in assay [1] is 331 nM; in assay [2], above 10000 nM; in assay [3] it was 426 nM.
As to `O=C(Nc1nccs1)C1(CCO)CC2c3ccccc3C1c1ccccc12` (stereo not given), in assay [1], the EC50 is above 5000 nM. Further, in assay [4], the Ki was 303 nM.
`CC1(C(=O)Nc2nccs2)CC2c3ccccc3C1([N+](=O)[O-])c1ccccc12` (stereo not given): the EC50 in assay [1] is 1160 nM; in assay [2] it was above 10000 nM; in assay [3] it was above 5000 nM.
Regarding `CN(C(=O)C1(C)CC2c3ccccc3C1c1ccccc12)c1nccs1` (stereo not given), in assay [1], the EC50 stood at 1240 nM. The inhibitory constant (Ki) in assay [4] was found to be 82.5 nM.
In the case of `CC12CC(C)(C(=O)Nc3nccs3)C(c3ccccc31)c1ccccc12` (stereo in doubt; 17), the results for the EC50 in assay [1], in assay [2] and in assay [3] were 14.7 nM, 121 nM and 8.3 nM, respectively.
Consider `CC1(C(=O)Nc2ccc([N+](=O)[O-])cc2O)CC2c3ccccc3C1c1ccccc12` (stereo not given), for which the EC50 in assay [1] was above 5000 nM. Besides, the Ki in assay [4] came to 158 nM.
For `C[C@]1(C(=O)Nc2nccs2)CC2(C#N)c3ccccc3C1c1ccccc12`, the EC50 in assay [1] was 837 nM; in assay [2], above 10000 nM; in assay [3], above 5000 nM. Moreover, in assay [4], the Ki is 37.8 nM.
As for `CC12CC(C)(C(=O)Nc3nncs3)C(c3ccccc31)c1ccccc12` (stereo in doubt; 18b), the EC50 in assay [1] was 3830 nM; in assay [2] it was above 2500 nM; in assay [3], 152 nM. In addition, the Ki in assay [4] was determined as 49.7 nM.
For `Cc1nc(NC(=O)C2(C)CC3c4ccccc4C2c2ccccc23)sc1C` (stereo not given), the EC50 in assay [1] turned out to be 923 nM. Also, the Ki in assay [4] came to 22.6 nM.
Regarding `CC1(C(=O)Nc2nccs2)CC2(Br)c3ccccc3C1c1ccccc12` (stereo not given), the values for the 50% effective concentration (EC50) in assay [1], in assay [2] and in assay [3] were 119 nM, 175 nM and 9.9 nM, respectively.
As for `CC1(C(=O)Nc2ncc[nH]2)CC2c3ccccc3C1c1ccccc12` (stereo not given), the EC50 in assay [1] was above 5000 nM. Also, the inhibition constant Ki in assay [4] was determined as 92.6 nM.
On the same counts, the results for `Cc1csc(NC(=O)C2(C)CC3c4ccccc4C2c2ccccc23)n1` (stereo not given) are above 5000 nM and 8.7 nM.
On the same counts, the results for `CCC1(C(=O)Nc2nccs2)CC2c3ccccc3C1c1ccccc12` (stereo not given) are above 2500 nM and 3.9 nM.

Values taken from ChEMBL document CHEMBL1138590, “Discovery of novel dihydro-9,10-ethano-anthracene carboxamides as glucocorticoid receptor modulators” (Bioorg Med Chem Lett, 2009).
